Experimental data published in patent US10689339B2, “Pyrrolidine derivatives” (Hoffmann-La Roche Inc., priority 2016, dated 2020).

biological target: human Cat S (Homo sapiens (Human), UniProt P25774); test: Cathepsin enzyme inhibition assay (fluorogenic peptide substrate Z-Val-Val-Arg-AMC); assay type: biochemical; settings: enzyme 1 nM, substrate 20 μM, pH 6.5
Description: Cathepsin Enzyme Inhibition Assay
Enzyme activity is measured by observing the increase in fluorescence intensity caused by cleavage of a peptide substrate containing a fluorophore whose emission is quenched in the intact peptide.
Assay buffer: 100 mM potassium phosphate pH 6.5, EDTA-Na 5 mM, Triton X-100 0.001%, DTT 5 mM.
Enzymes (all at 1 nM): human and mouse Cathepsin S, Cat K, Cat B, Cat L.
Substrate (20 μM): Z-Val-Val-Arg-AMC, except for Cat K which uses Z-Leu-Arg-AMC (both from Bachem).
AMC=7-Amino-4-Methyl-Coumarin.
Excitation 360 nm, Emission 465 nm.
Enzyme is added to the substance dilutions in 96-well microtitre plates and the reaction is started with substrate. […] IC50 are calculated by standard methods.
Inhibition of human Cat S, mouse Cat S, human Cat K, human Cat B, human Cat L and mouse Cat L have been measured separately.

Sequence of human Cat S (P25774 115-331): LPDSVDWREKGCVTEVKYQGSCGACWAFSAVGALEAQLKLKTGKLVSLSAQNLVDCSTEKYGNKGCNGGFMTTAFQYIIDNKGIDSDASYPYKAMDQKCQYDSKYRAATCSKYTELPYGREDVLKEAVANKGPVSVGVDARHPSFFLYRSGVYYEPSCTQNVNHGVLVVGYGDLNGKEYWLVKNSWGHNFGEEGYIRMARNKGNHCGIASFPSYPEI

Compound | IC50
N#CC1(NC(=O)[C@@H]2C[C@@H](S(=O)(=O)c3ccc(-c4cc[n+]([O-])c(Cl)c4)cc3C(F)(F)F)CN2C(=O)C2(C(F)(F)F)CC2)CC1 [Example 1, (2S,4R)-4-[4-(2-Chloro-1-oxy-pyridin-4-yl)-2-trifluoromethyl-benzenesulfonyl]-1-(1-trifluoromethyl-cyclopropanecarbonyl)-pyrrolidine-2-carboxylic acid (1-cyano-cyclopropyl)-amide] | 968 pM
Cc1cc(-c2ccc(S(=O)(=O)[C@@H]3C[C@@H](C(=O)NC4(C#N)CC4)N(C(=O)C4(C(F)(F)F)CC4)C3)c(C(F)(F)F)c2)cc[n+]1[O-] [Example 2, (2S,4R)-4-[4-(2-Methyl-1-oxy-pyridin-4-yl)-2-trifluoromethyl-benzenesulfonyl]-1-(1-trifluoromethyl-cyclopropanecarbonyl)-pyrrolidine-2-carboxylic acid (1-cyano-cyclopropyl)-amide] | 770 pM
Cn1nc(C(F)(F)F)cc1-c1ccc(S(=O)(=O)[C@@H]2C[C@@H](C(=O)NC3(C#N)CC3)N(C(=O)C3(C(F)(F)F)CC3)C2)c(C(F)(F)F)c1 [Example 3, (2S,4R)-4-[4-(2-Methyl-5-trifluoromethyl-2Hpyrazol-3-yl)-2-trifluoromethyl-benzenesulfonyl]-1-(1-trifluoromethyl-cyclopropanecarbonyl)-pyrrolidine-2-carboxylic acid (1-cyano-cyclopropyl)-amide] | 1020 pM
N#CC1(NC(=O)[C@@H]2C[C@@H](S(=O)(=O)c3ccc(-c4ccccc4OC(F)(F)F)cc3C(F)(F)F)CN2C(=O)C2(C(F)(F)F)CC2)CC1 [Example 4, (2S,4R)-4-(2′-Trifluoromethoxy-3-trifluoromethyl-biphenyl-4-sulfonyl)-1-(1-trifluoromethyl-cyclopropanecarbonyl)-pyrrolidine-2-carboxylic acid (1-cyano-cyclopropyl)-amide] | 978 pM
CCOc1ccccc1-c1ccc(S(=O)(=O)[C@@H]2C[C@@H](C(=O)NC3(C#N)CC3)N(C(=O)C3(C(F)(F)F)CC3)C2)c(C(F)(F)F)c1 [Example 5, (2S,4R)-4-(2′-Ethoxy-3-trifluoromethyl-biphenyl-4-sulfonyl)-1-(1-trifluoromethyl-cyclopropanecarbonyl)-pyrrolidine-2-carboxylic acid (1-cyano-cyclopropyl)-amide] | 836 pM
N#CC1(NC(=O)[C@@H]2C[C@@H](S(=O)(=O)c3ccc(-c4ccccc4OC4CC4)cc3C(F)(F)F)CN2C(=O)C2(C(F)(F)F)CC2)CC1 [Example 6, (2S,4R)-4-(2′-Cyclopropoxy-3-trifluoromethyl-biphenyl-4-sulfonyl)-1-(1-trifluoromethyl-cyclopropanecarbonyl)-pyrrolidine-2-carboxylic acid (1-cyano-cyclopropyl)-amide] | 1060 pM
N#CC1(NC(=O)[C@@H]2C[C@@H](S(=O)(=O)c3ccc(OC4CCC4)cc3C(F)(F)F)CN2C(=O)C2(C(F)(F)F)CC2)CC1 [Example 7, (2S,4R)-4-(4-Cyclobutoxy-2-trifluoromethyl-benzenesulfonyl)-1-(1-trifluoromethyl-cyclopropanecarbonyl)-pyrrolidine-2-carboxylic acid (1-cyano-cyclopropyl)-amide] | 910 pM
Cc1nnn(-c2ccc(S(=O)(=O)[C@@H]3C[C@@H](C(=O)NC4(C#N)CC4)N(C(=O)C4(C(F)(F)F)CC4)C3)c(Cl)c2)n1 [Example 8, (2S,4R)-4-(2-chloro-4-(5-methyl-2H-tetrazol-2-yl)phenylsulfonyl)-N-(1-cyanocyclopropyl)-1-(1-(trifluoromethyl)cyclopropanecarbonyl)pyrrolidine-2-carboxamide] | 533 pM
Cc1cc(-n2ccc(C(F)(F)F)n2)ccc1S(=O)(=O)[C@@H]1C[C@@H](C(=O)NC2(C#N)CC2)N(C(=O)C2(C(F)(F)F)CC2)C1 [Example 19, (2S,4R)—N-(1-cyanocyclopropyl)-4-(2-methyl-4-(3-(trifluoromethyl)-1H-pyrazol-1-yl)phenylsulfonyl)-1-(1-(trifluoromethyl)cyclopropanecarbonyl)pyrrolidine-2-carboxamide] | 1430 pM
N#CC1(NC(=O)[C@@H]2C[C@@H](S(=O)(=O)c3ccc(-c4ccccc4OC(F)(F)F)cc3)CN2C(=O)C2(C(F)(F)F)CC2)CC1 [Example 20, (2S,4R)—N-(1-cyanocyclopropyl)-4-(2′-(trifluoromethoxy)biphenyl-4-ylsulfonyl)-1-(1-(trifluoromethyl)cyclopropanecarbonyl)pyrrolidine-2-carboxamide] | 5720 pM
N#CC1(NC(=O)[C@@H]2C[C@@H](S(=O)(=O)c3ccc(OC4CCC4)cc3Cl)CN2C(=O)C2(C(F)(F)F)CC2)CC1 [Example 21, (2S,4R)-4-(2-chloro-4-cyclobutoxyphenylsulfonyl)-N-(1-cyanocyclopropyl)-1-(1-(trifluoromethyl)cyclopropanecarbonyl)pyrrolidine-2-carboxamide] | 1070 pM
Cc1cc(-c2ccccc2OC(F)(F)F)ccc1S(=O)(=O)[C@@H]1C[C@@H](C(=O)NC2(C#N)CC2)N(C(=O)C2(C(F)(F)F)CC2)C1 [Example 22, (2S,4R)—N-(1-cyanocyclopropyl)-4-(3-methyl-2′-(trifluoromethoxy)biphenyl-4-ylsulfonyl)-1-(1-(trifluoromethyl)cyclopropanecarbonyl)pyrrolidine-2-carboxamide] | 1140 pM

Other lines, results leading:

IC50 | Compound
683 pM | Cc1nnnn1-c1ccc(S(=O)(=O)[C@@H]2C[C@@H](C(=O)NC3(C#N)CC3)N(C(=O)C3(C(F)(F)F)CC3)C2)c(Cl)c1 [Example 9, (2S,4R)-4-(2-chloro-4-(5-methyl-1H-tetrazol-1-yl)phenylsulfonyl)-N-(1-cyanocyclopropyl)-1-(1-(trifluoromethyl)cyclopropanecarbonyl)pyrrolidine-2-carboxamide]
686 pM | N#CC1(NC(=O)[C@@H]2C[C@@H](S(=O)(=O)c3ccc(-n4cncn4)cc3Cl)CN2C(=O)C2(C(F)(F)F)CC2)CC1 [Example 10, (2S,4R)-4-(2-chloro-4-(1H-1,2,4-triazol-1-yl)phenylsulfonyl)-N-(1-cyanocyclopropyl)-1-(1-(trifluoromethyl)cyclopropanecarbonyl)pyrrolidine-2-carboxamide]
12600 pM | N#CC1(NC(=O)[C@@H]2C[C@@H](S(=O)(=O)c3ccc(-n4cncn4)cc3-n3cncn3)CN2C(=O)C2(C(F)(F)F)CC2)CC1 [Example 11, (2S,4R)—N-(1-cyanocyclopropyl)-4-(2,4-di(1H-1,2,4-triazol-1-yl)phenylsulfonyl)-1-(1-(trifluoromethyl)cyclopropanecarbonyl)pyrrolidine-2-carboxamide]
560 pM | N#CC1(NC(=O)[C@@H]2C[C@@H](S(=O)(=O)c3ccc(-n4nccn4)cc3Cl)CN2C(=O)C2(C(F)(F)F)CC2)CC1 [Example 12, (2S,4R)-4-(2-chloro-4-(2H-1,2,3-triazol-2-yl)phenylsulfonyl)-N-(1-cyanocyclopropyl)-1-(1-(trifluoromethyl)cyclopropanecarbonyl)pyrrolidine-2-carboxamide]
568 pM | N#CC1(NC(=O)[C@@H]2C[C@@H](S(=O)(=O)c3ccc(-n4ccnn4)cc3Cl)CN2C(=O)C2(C(F)(F)F)CC2)CC1 [Example 13, (2S,4R)-4-(2-chloro-4-(1H-1,2,3-triazol-1-yl)phenylsulfonyl)-N-(1-cyanocyclopropyl)-1-(1-(trifluoromethyl)cyclopropanecarbonyl)pyrrolidine-2-carboxamide]
529 pM | Cc1ncn(-c2ccc(S(=O)(=O)[C@@H]3C[C@@H](C(=O)NC4(C#N)CC4)N(C(=O)C4(C(F)(F)F)CC4)C3)c(Cl)c2)n1 [Example 14, (2S,4R)-4-(2-chloro-4-(3-methyl-1H-1,2,4-triazol-1-yl)phenylsulfonyl)-N-(1-cyanocyclopropyl)-1-(1-(trifluoromethyl)cyclopropanecarbonyl)pyrrolidine-2-carboxamide]
610 pM | Cc1nc(C)n(-c2ccc(S(=O)(=O)[C@@H]3C[C@@H](C(=O)NC4(C#N)CC4)N(C(=O)C4(C(F)(F)F)CC4)C3)c(Cl)c2)n1 [Example 15, (2S,4R)-4-(2-chloro-4-(3,5-dimethyl-1H-1,2,4-triazol-1-yl)phenylsulfonyl)-N-(1-cyanocyclopropyl)-1-(1-(trifluoromethyl)cyclopropanecarbonyl)pyrrolidine-2-carboxamide]
563 pM | N#CC1(NC(=O)[C@@H]2C[C@@H](S(=O)(=O)c3ccc(-n4cnc(Cl)n4)cc3Cl)CN2C(=O)C2(C(F)(F)F)CC2)CC1 [Example 16, (2S,4R)-4-(2-chloro-4-(3-chloro-1H-1,2,4-triazol-1-yl)phenylsulfonyl)-N-(1-cyanocyclopropyl)-1-(1-(trifluoromethyl)cyclopropanecarbonyl)pyrrolidine-2-carboxamide]
704 pM | N#CC1(NC(=O)[C@@H]2C[C@@H](S(=O)(=O)c3ccc(-n4ccc(C(F)(F)F)n4)cc3Cl)CN2C(=O)C2(C(F)(F)F)CC2)CC1 [Example 17, (2S,4R)-4-(2-chloro-4-(3-(trifluoromethyl)-1H-pyrazol-1-yl)phenylsulfonyl)-N-(1-cyanocyclopropyl)-1-(1-(trifluoromethyl)cyclopropanecarbonyl)pyrrolidine-2-carboxamide]
980 pM | Cc1cc(C(F)(F)F)nn1-c1ccc(S(=O)(=O)[C@@H]2C[C@@H](C(=O)NC3(C#N)CC3)N(C(=O)C3(C(F)(F)F)CC3)C2)c(Cl)c1 [Example 18, (2S,4R)-4-(2-chloro-4-(5-methyl-3-(trifluoromethyl)-1H-pyrazol-1-yl)phenylsulfonyl)-N-(1-cyanocyclopropyl)-1-(1-(trifluoromethyl)cyclopropanecarbonyl)pyrrolidine-2-carboxamide]
